Source: ChEMBL document CHEMBL4480365, “Coupling the cell-penetrating peptides transportan and transportan 10 to primaquine enhances its activity against liver-stage malaria parasites” (Medchemcomm, 2019)
Activity calls are given as the source filed them. The calls are words filed in the database; no cut-off is given here. Starred links: 1 amine or outer side, 2 acyl side, 3 side chain; linkers in the order of their positions; H or OH if unused. Residues, ends and D or L forms follow the SMILES beside them. *: point of attachment. X1 = COc1cc(NC(C)CCCNC(=O)C(N)CSSCC(N)C(=O)NC(=O)[C@H](CC(C)C)N*)c2ncccc2c1; Primaquine = COc1cc(NC(C)CCCN*)c2ncccc2c1; Suc = O=C(CCC(=O)[*:2])[*:1]

Key:
Huh-7 = assay: Cytotoxicity against human HuH7 cells assessed as reduction in cell viability at 1 to 10 uM; type: cell-based; conditions: huh-7, 10 µM
Plasmodium berghei = assay: Antiplasmodial activity against Plasmodium berghei liver-stage forms at 1 to 10 uM; type: functional, organism-based

Compound	Activity (Huh-7)	Activity (Plasmodium berghei)
CC[C@H](C)[C@H](NC(=O)[C@H](CCCCN)NC(=O)[C@H](CCCCN)NC(=O)[C@H](C)NC(=O)[C@H](CC(C)C)NC(=O)[C@H](C)NC(=O)[C@H](C)NC(=O)[C@H](CC(C)C)NC(=O)[C@H](C)NC(=O)[C@H](CCCCN)NC(=O)[C@H](CC(C)C)NC(=O)[C@H](CC(N)=O)NC(=O)[C@@H](NC(=O)[C@H](CCCCN)NC(=O)CNC(=O)[C@H](CC(C)C)NC(=O)[C@H](CC(C)C)NC(=O)[C@H](Cc1ccc(O)cc1)NC(=O)CNC(=O)[C@H](C)N)[C@@H](C)CC)C(=O)N[C@@H](CC(C)C)C(=O)O	Non-Toxic	Active
CC[C@H](C)[C@H](NC(=O)[C@H](CCCCN)NC(=O)[C@H](CCCCN)NC(=O)[C@H](C)NC(=O)[C@H](CC(C)C)NC(=O)[C@H](C)NC(=O)[C@H](C)NC(=O)[C@H](CC(C)C)NC(=O)[C@H](C)NC(=O)[C@H](CCCCN)NC(=O)[C@H](CC(C)C)NC(=O)[C@H](CC(N)=O)NC(=O)[C@@H](NC(=O)[C@H](CCCCN)NC(=O)CNC(=O)[C@H](CC(C)C)NC(=O)[C@H](CC(C)C)NC(=O)[C@H](Cc1ccc(O)cc1)NC(=O)CNC(=O)[C@H](C)NC(=O)[C@H](CO)NC(=O)[C@H](CC(N)=O)NC(=O)[C@H](CC(C)C)NC(=O)[C@@H](NC(=O)[C@H](Cc1c[nH]c2ccccc12)NC(=O)CN)[C@@H](C)O)[C@@H](C)CC)C(=O)N[C@@H](CC(C)C)C(=O)O	Non-Toxic	inactive
CC[C@H](C)[C@H](NC(=O)[C@H](CCCCN)NC(=O)[C@H](CCCCN)NC(=O)[C@H](C)NC(=O)[C@H](CC(C)C)NC(=O)[C@H](C)NC(=O)[C@H](C)NC(=O)[C@H](CC(C)C)NC(=O)[C@H](C)NC(=O)[C@H](CCCCN)NC(=O)[C@H](CC(C)C)NC(=O)[C@H](CC(N)=O)NC(=O)[C@@H](NC(=O)[C@H](CCCCN)NC(=O)CNC(=O)[C@H](CC(C)C)NC(=O)[C@H](CC(C)C)NC(=O)[C@H](Cc1ccc(O)cc1)NC(=O)CNC(=O)[C@H](C)NC(=O)CCC(=O)NCCCC(C)Nc1cc(OC)cc2cccnc12)[C@@H](C)CC)C(=O)N[C@@H](CC(C)C)C(=O)O (some centres undefined)	Non-Toxic	Active
CC[C@H](C)[C@H](NC(=O)[C@H](CCCCN)NC(=O)[C@H](CCCCN)NC(=O)[C@H](C)NC(=O)[C@H](CC(C)C)NC(=O)[C@H](C)NC(=O)[C@H](C)NC(=O)[C@H](CC(C)C)NC(=O)[C@H](C)NC(=O)[C@H](CCCCN)NC(=O)[C@H](CC(C)C)NC(=O)[C@H](CC(N)=O)NC(=O)[C@@H](NC(=O)[C@H](CCCCN)NC(=O)CNC(=O)[C@H](CC(C)C)NC(=O)[C@H](CC(C)C)NC(=O)[C@H](Cc1ccc(O)cc1)NC(=O)CNC(=O)[C@H](C)N)[C@@H](C)CC)C(=O)N[C@@H](CC(C)C)C(=O)NC(=O)C(N)CSSCC(N)C(=O)NCCCC(C)Nc1cc(OC)cc2cccnc12 (some centres undefined) (H-AGYLLGKINLKALAALAKKI-X1)	Toxic	Active
CC[C@H](C)[C@H](NC(=O)[C@H](CC(C)C)NC(=O)[C@H](Cc1ccccc1)NC(=O)[C@H](Cc1ccccc1)NC(=O)CCC(=O)NCCCC(C)Nc1cc(OC)cc2cccnc12)C(=O)N1CCC[C@H]1C(=O)N[C@@H](CCCCN)C(=O)NCC(=O)NCC(=O)N[C@@H](CCCNC(=N)N)C(=O)N[C@@H](CCCCN)C(=O)N[C@@H](CCCCN)C(=O)N[C@@H](CCCNC(=N)N)C(=O)N[C@@H](CCCNC(=N)N)C(=O)N[C@@H](CCC(N)=O)C(=O)N[C@@H](CCCNC(=N)N)C(=O)N[C@@H](CCCNC(=N)N)C(=O)N[C@@H](CCCNC(=N)N)C(=O)N1CCC[C@H]1C(=O)N1CCC[C@H]1C(=O)N[C@@H](CCC(N)=O)C(=O)O (some centres undefined) ({Primaquine-Suc}-FFLIPKGGRKKRRQRRRPPQ-OH)	Non-Toxic	–
COc1cc(NC(C)CCCNC(=O)CCC(=O)N[C@@H](CCCNC(=N)N)C(=O)N[C@@H](CCCCN)C(=O)N[C@@H](CCCCN)C(=O)N[C@@H](CCCNC(=N)N)C(=O)N[C@@H](CCCNC(=N)N)C(=O)N[C@@H](CCC(N)=O)C(=O)N[C@@H](CCCNC(=N)N)C(=O)N[C@@H](CCCNC(=N)N)C(=O)N[C@@H](CCCNC(=N)N)C(=O)N2CCC[C@H]2C(=O)N2CCC[C@H]2C(=O)N[C@@H](CCC(N)=O)C(=O)O)c2ncccc2c1 (some centres undefined) ({Primaquine-Suc}-RKKRRQRRRPPQ-OH)	Non-Toxic	Active
CC[C@H](C)[C@H](NC(=O)[C@H](CCCNC(=N)N)NC(=O)[C@@H](NC(=O)[C@H](C)NC(=O)[C@@H](NC(=O)[C@@H](NC(=O)[C@H](CC(C)C)NC(=O)[C@H](CCCNC(=N)N)NC(=O)[C@@H](NC(=O)CCC(=O)NCCCC(C)Nc1cc(OC)cc2cccnc12)C(C)C)[C@@H](C)CC)C(C)C)C(C)C)C(=O)N[C@@H](Cc1c[nH]c2ccccc12)C(=O)N[C@@H](CCCNC(=N)N)C(=O)N[C@@H](CCCNC(=N)N)C(=O)O (some centres undefined) ({Primaquine-Suc}-VRLIVAVRIWRR-OH)	Non-Toxic	inactive
COc1cc(NC(C)CCCN)c2ncccc2c1 (centres undefined) [PRIMAQUINE]	Non-Toxic	Active
H-FFLIPKGGRKKRRQRRRPPQ-OH	Non-Toxic	Active
H-RKKRRQRRRPPQ-OH	Non-Toxic	Active
